Assay results: patent US20100143993A1, “PROCESS FOR FERMENTIVE PREPARATIONFOR ALCOLHOLS AND RECOVERY OF PRODUCT” (E.I. DU PONT DE NEMOURS AND COMPANY, priority 2008, published 2010)
Several values for one entry are separate records, joined by “and”; a condition that tells them apart may be missing. Equal values may be shown once.

How the values were obtained:
[1] = system: Lactobacillus fermentum (ATCC 14931); assay: Glucose Uptake Index of Lactobacillus fermentum culture with ionic liquid; assay type: cell-based; details: 5% (v/v) of the ionic liquid phase, MRS medium, 30° C., 16 hours after addition
[2] = system: Lactobacillus zeae (ATCC 15820); assay: Glucose Uptake Index of Lactobacillus zeae culture with ionic liquid; assay type: cell-based; details: 5% (v/v) of the ionic liquid phase, MRS medium, 30° C., 16 hours after addition
Description: This media was made per bottle instructions using sterilized water, and was then again filter sterilized before use. The test tubes were incubated at 30° C. at 175 rpm in an Inova Incubator (Karlsbad, Sweden). After 24 hours, the test tubes were removed and stored at 4° C.
A portion (50 μL) of each stock culture prepared as above was inoculated into separate 15 mL sterile polypropylene culture tubes containing fresh MRS medium (3 mL). These tubes were incubated for four hours at 30° C. at 175 rpm. After four hours, one of these culture tubes was inoculated with 150 μL (5% v/v) of each of the ionic liquids as listed in Table 1 below. […] Each tube that was inoculated with an ionic liquid was also paired with a tube that received no ionic liquid and was used as a control.
All culture tubes were then incubated again under the same conditions for another 16 hours. After 16 hours, the culture tubes were stored at −80° C. Analytical samples were taken from each culture tube by thawing the samples and spinning them at 28,000 rpm and 20° C. for ten minutes in a Sorvall Instruments RC3C (Newtown Conn.) centrifuge. One milliliter of supernatant was removed from each tube and was subjected to high performance liquid chromatography (HPLC) analysis using an Agilent (Palo Alto Calif.) HPLC 1100 with a BioRad Aminex 87-H using 0.008 N sulfuric acid with both diode array and refractive index detection, and an Agilent HPLC 1100 with a Shodex OH-pak column using 0.01 N sulfuric acid. Data analysis was performed using the Agilent Chemstation software and Microsoft Excel.
The glucose uptake index was calculated by taking the total glucose consumed in a fermentation sample, whether or not the sample contained an ionic liquid, and dividing it by the total initial glucose present in the broth at the start of fermentation.

[3] = Extraction of ethanol from an aqueous solution by ionic liquid; details: for Ethanol Remaining in Solution: aqueous solution about 31 g/L ethanol; for Ethanol Remaining in Solution / Ethanol Extracted: 5 vol % ionic liquid; for Ethanol Remaining in Solution / Ethanol: overnight equilibration, HPLC; for Ethanol: ethanol concentration in aqueous solution (about 31 g/L at start) after mixing with 5 vol % ionic liquid; for Ethanol Extracted: percentage relative to control without ionic liquid (Example 31)
[4] = Extraction of isobutanol from an aqueous solution by ionic liquid; details: for Isobutanol Remaining in Solution: aqueous solution about 31 g/L isobutanol; for Isobutanol Remaining in Solution / Isobutanol Extracted: 5 vol % ionic liquid; for Isobutanol Remaining in Solution / Isobutanol: overnight equilibration, HPLC; for Isobutanol: isobutanol concentration in aqueous solution (about 31 g/L at start) after mixing with 5 vol % ionic liquid; for Isobutanol Extracted: percentage relative to control without ionic liquid (Example 31)
Description: Ethanol and isobutanol concentration in the solution was measured using HPLC as described above following thorough mixing and overnight equilibration of the contents of the vial.

Compound | GUI of Sample (Glucose Utilization Index) [1] | GUI of Sample (Glucose Utilization Index) [2] | Ethanol Remaining in Solution [3] [g/L] | Ethanol [3] [mM] | Ethanol Extracted [3] [%] | Isobutanol Remaining in Solution [4] [g/L] | Isobutanol [4] [mM] | Isobutanol Extracted [4] [%]
1-butyl-3-methylimidazolium 1,1,2,3,3,3-hexafluoropropanesulfonate [[BMIM] [HFPS]] | 8.0 and 11.5 | 21.2 and 34.3 | – | – | – | – | – | –
1-butyl-3-methylimidazolium 1,1,2-trifluoro-2-(perfluoroethoxy)ethanesulfonate [[BMIM] [TPES]] | 7.21 | 5.06 | – | – | – | – | – | –
1-butyl-3-methylimidazolium 1,1,2-trifluoro-2-(trifluoromethoxy)ethanesulfonate [[BMIM] [TTES]] | 16.2 | 58.8 | – | – | – | – | – | –
1-butyl-3-methylimidazolium 2-(1,2,2,2-tetrafluoroethoxy)-1,1,2,2-tetrafluoroethanesulfonate [[BMIM] [FS]] | 24.0 | 54.4 | – | – | – | – | – | –
1-butyl-3-methylimidazolium bis(trifluoromethylsulfonyl)imide [[BMIM] [Tf2N]] | 26.8 | 64.4 | – | – | – | – | – | –
1-butyl-3-methylpyrrolidinium bis(trifluoromethylsulfonyl)imide [[BMP] [Tf2N]] | 0.96 | 49.8 | 31.1 | 676 | 1.17 | 29.0 | 391 | 6.33
1-ethyl-3-methylimidazolium bis(pentafluoroethylsulfonyl)imide [[EMIM] [BEI]] | 25.5 | 36.0 | – | – | – | – | – | –
1-ethyl-3-methylimidazolium bis(trifluoromethylsulfonyl)imide [[EMIM] [Tf2N]] | 54.5 | 51.2 | 30.9 | 670 | 1.96 | 28.8 | 389 | 7.11
1-hexyl-3-methylimidazolium bis(trifluoromethylsulfonyl)imide [[HMIM] [Tf2N]] | 19.5 | 66.2 | 31.3 | 678 | 0.76 | 28.8 | 388 | 7.28
3-methyl-1-propylpyridinium bis(trifluoromethylsulfonyl)imide [[PMPy] [Tf2N]] | 26.1 | 63.5 | – | – | – | – | – | –
CCCCn1cc[n+](C)c1.F[B-](F)(F)F [[BMIM] [BF4], 1-butyl-3-methylimidazolium tetrafluoroborate] | – | 11.8 | – | – | – | – | – | –
CCCCn1cc[n+](C)c1.F[P-](F)(F)(F)(F)F [[BMIM] [PF6], 1-butyl-3-methylimidazolium hexafluorophosphate] | – | 55.4 | – | – | – | – | – | –
CCCCCCn1cc[n+](C)c1.FC(F)(F)C(F)(F)[P-](F)(F)(F)(C(F)(F)C(F)(F)F)C(F)(F)C(F)(F)F [[HMIM] [FAP], 1-hexyl-3-methylimidazolium tris(pentafluoroethyl)trifluorophosphate] | 84.7 | 51.9 | – | 680 | 0.45 | – | 404 | 3.14
tetradecyl(tri-n-hexyl)phosphonium 1,1,2-trifluoro-2-(perfluoroethoxy)ethanesulfonate [[6,6,6,14-P] [TPES]] | 92.8 | 62.8 | – | – | – | – | – | –
